In patent US20140034581A1, “LIQUID PRODUCTS AND METHOD FOR EMULSIFYING OIL, AND USE THEREOF IN THE TREATMENT OF OIL CONTAMINATIONS” (MAN OIL GROUP AG, priority 2011, published 2014):

Experiment: flash point
Assay type: physicochemical
Details: pure glycol component

In the case of `CC(O)CO` (stereo not shown) [1,2-Propandiol], the flash point is reported as > 102 °C.
